Assay results reported in US9458337B2, “Curable resin composition, water-soluble ink composition, ink set, and image-forming method” (FUJIFILM CORPORATION, priority 2012, dated 2016).

Test: Degree of solubility of polymerization initiators (3 mass % aqueous solution)
Format: physicochemical
Parameters: key: A: The polymerization initiator was fully dissolved at room temperature.; B: The polymerization initiator was slightly precipitated at room temperature, and was fully dissolved when being heated at 60° C.; The polymerization initiator was not fully dissolved even when being heated at 60° C
Settings: 3 mass % aqueous solution of the polymerization initiator; room temperature / heated at 60° C.
Description: 3 mass % aqueous solutions were respectively prepared using Polymerization Initiators I-1 to I-5, I-8, and R-1 to R-4, and the degrees of solubility of the polymerization initiators were evaluated according to the following evaluation standards.
A: The polymerization initiator was fully dissolved at room temperature.
B: The polymerization initiator was slightly precipitated at room temperature, and was fully dissolved when being heated at 60° C.
C: The polymerization initiator was not fully dissolved even when being heated at 60° C.

SMILES	Degree of solubility
CCC(Cc1ccc(S(=O)(=O)O)cc1)(C(=O)c1ccc(N2CCOCC2)cc1)N(C)C (centres unmarked) [Compound R-4]	A
CC(C)(O)C(=O)c1ccc(OCCO)cc1 [Compound R-1]	C
C[N+](C)(CCCS(=O)(=O)[O-])CCOc1ccc2c(=O)c3ccccc3sc2c1 [Compound I-1]	A
Cc1c(OCC(O)C[N+](C)(C)C)cc2c(=O)c3ccccc3sc2c1C (centres unmarked) [Compound R-2]	A
COC(OC)(C(=O)c1ccc(OCC(=O)[O-])cc1)c1ccc(OCC(=O)[O-])cc1.[Na+].[Na+] [Compound R-3]	C
